From paper PMC4974614, “Human native kappa opioid receptor functions not predicted by recombinant receptors: Implications for drug design” (Scientific Reports, 2016)
Several values for one entry are separate records, joined by “and”; a condition that tells them apart may be missing. Equal values may be shown once. Where a name gives a salt, the structure may show the parent alone. Read-outs that look alike come from different tables or passages of the source.

Key:
human κ receptor [1] = biological target: T1, human κ receptor (Homo sapiens, UniProt P41145); experiment: cell-based; conditions: for Emax: HEK293, read-out: BRET Emax (%)
mouse κ receptor [2] = biological target: T2, mouse κ receptor (Mus musculus, UniProt P33534); experiment: cell-based; conditions: HEK293, read-out: BRET Emax (%)
human κ receptor [3] = biological target: T1, human κ receptor; experiment: cell-based; conditions: for Emax: HEK293, read-out: TR-FRET Emax (%)
mouse κ receptor [4] = biological target: T2, mouse κ receptor; experiment: cell-based; conditions: HEK293, read-out: TR-FRET Emax (%)
human κ receptor [5] = biological target: T1, human κ receptor; type: cell-based
mouse κ receptor [6] = biological target: T2, mouse κ receptor; type: cell-based
mouse isolated colon = experiment: EFS-evoked cholinergically-mediated contractions of mouse isolated colon; type: cell-based; conditions: for Emax / EC50: Mus musculus; for Emax: read-out: Emax (%), inhibition of EFS-evoked after-contractions; for EC50: read-out: pEC50, inhibition of EFS-evoked after-contractions (converted)
mouse proximal colon = experiment: Carbachol-induced contractions of mouse proximal colon; type: cell-based
Method: Changes in muscle tension were recorded using isometric force transducers (AD Instruments, Chalgrove, UK) on a data acquisition system (Biopac Systems Inc., Goleta, CA, USA). The strips were given 1 g tension and allowed to recover for 30 min during which time the bath solutions were changed every 15 min; this initial tension was previously determined as the optimum required to maximally detect EFS-evoked responses in both regions (data not shown). Electrical Field Stimulation (EFS) was applied at 5 Hz using a maximally-effective voltage (80 V) and 0.5 ms bipolar pulse duration […], given for 30 s every 120 s, for at least 1 hour before drug addition. These parameters of EFS consistently evoked nerve-mediated responses with a good signal-to-noise ratio over spontaneous muscle activity. After obtaining consistent responses, drugs were applied non-cumulatively to separate tissues (20 min contact); changes in resting muscle tension and responses to EFS were measured. Finally, any effects of the drugs on carbachol-induced contractions were examined by first obtaining consistent responses to a submaximally-effective concentration of carbachol (1 μM; 27 ± 9% max, 5 min contact; n = 4). The compounds were then added 5 min before application of carbachol (1 μM, 5 min contact), followed by washing, and this process was repeated at least once more.

human isolated colon [7] = experiment: EFS-evoked cholinergically-mediated contractions of human isolated colon; type: cell-based; conditions: for inhibition at 1 µM: read-out: % inhibition of contractions evoked during EFS; for effect alone on responses to EFS: phentolamine 1 μM and propranolol 1 μM together, descending colon
human descending colon [8] = experiment: cells; type: cell-based
[9] = system: tetrodotoxin-sensitive Na+ channels; conditions: read-out: EC50, block of tetrodotoxin-sensitive Na+ channels; cited from earlier work
μ-opioid receptors = conditions: cited from earlier work
[10] = system: K+ channels in mouse epithelia; conditions: read-out: IC50, block of K+ channels; cited from earlier work
[11] = human, in vivo; cited from earlier work
[12] = in vivo; cited from earlier work
human descending colon [13] = experiment: Carbachol-evoked contractions of human descending colon
[14] = system: mouse κ receptors in COS-1 cells; conditions: read-out: IC50, radioligand binding; cited from earlier work
[15] = biological target: Recombinant human receptor; conditions: cited from earlier work
[16] = biological target: Recombinant human receptor; conditions: cited from earlier work; remark: listed apart in the source
human isolated colon [17] = conditions: cited from earlier work
κ receptor = conditions: cited from earlier work

T1 sequence (P41145 whole entry): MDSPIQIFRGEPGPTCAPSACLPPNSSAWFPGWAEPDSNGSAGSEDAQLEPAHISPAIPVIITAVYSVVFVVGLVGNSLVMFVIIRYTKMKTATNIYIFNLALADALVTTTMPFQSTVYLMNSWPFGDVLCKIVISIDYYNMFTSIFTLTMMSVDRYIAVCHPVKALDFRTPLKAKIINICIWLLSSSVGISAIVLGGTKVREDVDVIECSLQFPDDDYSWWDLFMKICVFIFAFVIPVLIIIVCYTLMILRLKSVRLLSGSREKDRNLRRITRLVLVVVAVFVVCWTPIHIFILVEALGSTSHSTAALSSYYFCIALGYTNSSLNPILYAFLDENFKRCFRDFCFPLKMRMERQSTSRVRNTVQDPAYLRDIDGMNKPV
T2 sequence (P33534 whole entry): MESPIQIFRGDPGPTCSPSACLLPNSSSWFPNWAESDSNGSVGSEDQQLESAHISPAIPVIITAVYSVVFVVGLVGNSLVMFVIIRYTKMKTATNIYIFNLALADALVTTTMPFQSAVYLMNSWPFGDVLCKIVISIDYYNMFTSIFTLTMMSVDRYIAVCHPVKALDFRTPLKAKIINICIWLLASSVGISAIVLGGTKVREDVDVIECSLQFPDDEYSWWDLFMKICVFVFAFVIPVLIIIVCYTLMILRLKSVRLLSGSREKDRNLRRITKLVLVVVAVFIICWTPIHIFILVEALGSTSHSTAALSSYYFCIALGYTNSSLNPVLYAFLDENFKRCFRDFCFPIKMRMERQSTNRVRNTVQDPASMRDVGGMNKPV

Compound `CN(C(=O)C(c1ccccc1)c1ccccc1)[C@H](CN1CC[C@H](O)C1)c1ccccc1` [Asimadoline] has an EC50 (human κ receptor [1]; BRET pEC50) of 0.631 nM, an Emax (human κ receptor [1]) of 98 ± 5% and an Emax (mouse κ receptor [2]) of 99 ± 4%. For the same compound, the EC50 (human κ receptor [3]) was 39.8 nM, the Emax (human κ receptor [3]) was 97 ± 2% and the Emax (mouse κ receptor [4]) was 96 ± 3%. The BIAS (human κ receptor [5]) was 0.60, the BIAS (mouse κ receptor [6]) was 0.65 and the “reduction of contractions of the distal colon” value (mouse isolated colon) was 59 ± 13%. For the same compound, the “time taken to achieve maximum activity” value (mouse isolated colon) was 17 ± 3 min, the Emax (mouse isolated colon) was 52 ± 7% and the EC50 (mouse isolated colon) was 7.94 nM. The “effect on contractions induced by carbachol 1 μM” value (mouse proximal colon) was 5 ± 7, the “Time to max effect” value (human isolated colon [7]) was 40 ± 4 min and the “effect on baseline muscle tension” value (human isolated colon [7]) was “Neither asimadoline nor ICI204448 changed baseline muscle tension”. For the same compound, the “time to maximum inhibition” value (human isolated colon [7]) was 30 ± 5 min, the inhibition at 1 µM (human isolated colon [7]; Homo sapiens) was -29 ± 4% and the “maximum inhibition of the response to ICI204448 60 nM” value (human descending colon [8]) was 19 ± 7%. For the same compound, the IC50 (human descending colon [8]; Homo sapiens, read-out: pIC50, reduction of the response to ICI204448 60 nM (converted)) was 1.58 nM, the EC50 [9] was 8.4 µM and the “concentration activating μ-opioid receptors” value (μ-opioid receptors) was 3 µM. The IC50 [10] was 23.7 µM, the “effect on colonic transit or postprandial motility” value [11] was “not to affect colonic transit or postprandial motility” and the “effect on sensation or pain caused by colonic distension” value [12] was “reduced the sensation or pain caused by colonic distension”. The “effect on contractions evoked by carbachol 1 μM” value (human descending colon [13]) was −10 ± 9%.

For `COC(=O)[C@@H](N)CCCNC(N)=N[N+](=O)[O-]` [L-NAME, Nω-nitro-L-arginine methyl ester hydrochloride], the “effect on EFS-evoked relaxations” value (mouse isolated colon; 300 μM, proximal and distal colon) was “abolished” and the “effect on relaxations during EFS” value (human isolated colon [7]; 300 μM, ascending and descending colon) was “prevented”.

Compound `CN(C(=O)Cc1ccc(Cl)c(Cl)c1)C(CN1CCCC1)c1cccc(OCC(=O)O)c1` (stereo not drawn) [ICI204448] has an Emax (human κ receptor [1]) of 100 ± 3%, an Emax (mouse κ receptor [2]) of 90 ± 4% and an Emax (human κ receptor [3]) of 98 ± 2%. For the same compound, the Emax (mouse κ receptor [4]) was 92 ± 4%, the “Emax (%), inhibition of EFS-evoked after-contractions” value (mouse isolated colon) was 57 ± 7% and the “reduction of contractions of the distal colon” value (mouse isolated colon) was 70 ± 5%. The “time taken to achieve maximum activity” value (mouse isolated colon) was 7 ± 2 min, the Emax (mouse isolated colon) was 49 ± 8% and the EC50 (mouse isolated colon) was 3.16 nM. For the same compound, the “effect on contractions induced by carbachol 1 μM” value (mouse proximal colon; 1 μM, proximal colon) was 0 ± 5 % initial carbachol response, the “Time to max effect” value (human isolated colon [7]) was 13 ± 3 min and the “effect on baseline muscle tension” value (human isolated colon [7]) was “Neither asimadoline nor ICI204448 changed baseline muscle tension”. The “effect on relaxations evoked by EFS” value (human isolated colon [7]) was 1 ± 7 % change from baseline EFS, the “pEC50, inhibition of contractions during EFS” value (human isolated colon [7]) was 8.0 ± 0.4 and the “time to maximum inhibition” value (human isolated colon [7]) was 7 ± 1 min. For the same compound, the inhibition at 1 µM (human isolated colon [7]; Homo sapiens) was -57 ± 10%, the inhibition at 0.1 µM (human isolated colon [7]; Homo sapiens, read-out: inhibition of EFS-evoked contractions) was 130 ± 29% and the IC50 [14] was 6.6 nM. The “G protein pEC50” value [15] was 8.38 ± 0.09, the “Arrestin pEC50” value [16] was 8.48 ± 0.06 and the “biased activity towards the human κ receptor arrestin pathway” value [16] was “only weak propensity for biased activity”. For the same compound, the “effect on contractions evoked by carbachol 1 μM” value (human descending colon [13]; 100 nM, descending colon, no EFS) was −9 ± 2%.

In the case of `CN1[C@@H]2CC[C@H]1C[C@@H](OC(=O)C(CO)c1ccccc1)C2` (stereo partly drawn) [atropine], the “increase of EFS-evoked relaxations” value (mouse isolated colon) is reported as 61 ± 13%, the reduction of after-contractions (mouse isolated colon) is reported as 81 ± 5% and the “effect on contractions during EFS” value (human isolated colon [7]) is reported as “prevented”. The attenuation of after-contractions (human isolated colon [17]) was 56 ± 12%.

For `NC1=N[C@H](O)[C@H]2[C@H]3O[C@]4(O)O[C@@H]([C@@H](O)[C@@]2(N1)[C@@H]4O)[C@]3(O)CO` [tetrodotoxin], the “effect on EFS-evoked responses (relaxation, after-contraction)” value (mouse isolated colon) was “prevented” and the “effect on responses evoked by EFS” value (human isolated colon [7]) was “prevented”.

For `Oc1ccc2c3c1O[C@H]1c4[nH]c5c(c4C[C@@]4(O)[C@@H](C2)N(CC2CC2)CC[C@]314)C[C@@]1(O)[C@H]2Cc3ccc(O)c4c3[C@@]1(CCN2CC1CC1)[C@H]5O4` [nor-binaltorphamine], the “effect by itself on the response to EFS” value (mouse isolated colon) was “did not by itself change the response to EFS”, the “effect on inhibition by ICI204448 and asimadoline” value (mouse isolated colon) was “antagonised” and the “effect by itself on contractions to EFS” value (human isolated colon [7]) was “by itself did not affect contractions to EFS”. The “intercept of Schild analysis” value (human isolated colon [7]) was −9.7 and the “slope of Schild analysis” value (human isolated colon [7]) was 0.53 ± 0.11.

In the case of `C[N+](C)(C)CCOC(N)=O` [carbachol], the “contraction as % max” value (mouse proximal colon; 1 μM, 5 min contact) is reported as 27 ± 9 % max and the “contraction as % of maximum contraction to carbachol” value (human descending colon [13]; 1 μM, 5 min contact) is reported as ~ 50%.

In the case of Dynorphin 1-13, the “% inhibition of contractions evoked during EFS” value (human isolated colon [7]) is given as -30% and -35%, the “Time to max effect” value (human isolated colon [7]) is given as 17 min and 11 min and the “G protein pEC50” value [15] is given as 8.68 ± 0.07. For the same compound, the “Arrestin pEC50” value [16] was 7.01 ± 0.07.

For `CC[C@](COCc1cc(OC)c(OC)c(OC)c1)(c1ccccc1)N(C)C` [fedotozine], the “selectivity for the κ receptor over other opioid receptors” value (κ receptor) is given as roughly 2 fold.

In the case of `CC(C)NCC(O)COc1cccc2ccccc12` (stereo not drawn) [propranolol], the “effect alone on responses to EFS” value (human isolated colon [7]) is reported as 2 ± 3 % change from baseline EFS.

For `Cc1ccc(N(CC2=NCCN2)c2cccc(O)c2)cc1` [phentolamine], the “effect alone on responses to EFS” value (human isolated colon [7]) was 2 ± 3 % change from baseline EFS.
